{
  "source": "patent US20180064687A1",
  "about": "“PHARMACEUTICAL COMPOSITION FOR THE PREVENTION AND TREATMENT OF DISEASES ASSOCIATED WITH ELEVATED INDUCIBLE NITRIC OXIDE SYNTHASE” (AKCIJU SABIEDRIBA \"OLAINFARM', priority 2015, published 2018)",
  "key": {"[1]": {"test_system": "formalin-induced nociceptive responses", "settings": "cited from earlier work; for nociceptive responses to formalin-produced peripheral neuropathy: systemic and intrathecal administration, mice and rats"}, "[2]": {"settings": "i.p. administration; cited from earlier work"}, "LPS-induced hypothermia": {"test_system": "LPS-induced hypothermia", "assay": "LPS-induced hypothermia (rectal temperature), septic shock model", "format": "in vivo", "settings": "mice; 50 mg/kg i.p. simultaneously with LPS 20 mg/kg; 6 h after injection", "description": "(§1) Male ICR mice weighing 25-30 g were obtained from the Laboratory of Experimental Animals, Riga Stradins University (Riga, Latvia), and housed under standard conditions (21-23° C., relative humidity 65%±10%, 12 h light-dark cycle) with unlimited access to standard food (R70 diet, Lactamin AB, Sweden) and water. The experimental procedures were performed in accordance with the guidelines reported in EU Directive 2010/63/EU and in accordance with local laws and policies; all of the procedures were approved by the Latvian Animal Protection Ethical Committee of Food and Veterinary Service in Riga, Latvia. To eliminate systematic differences between the treatment groups, the animals were randomly assigned to their respective experimental groups (12 animals in each group for formalin test and 6 animals in each group for LPS test). To avoid subjective factors in the rating process, all experimental procedures were performed in a blinded fashion.\nThe hypothermia was induced by an i.p. injection of LPS at a dose of 20 mg/kg. Control animals received i.p. injection of saline (0.9% NaCl). […] The rectal temperature of animals was measured using a thermometer (Thermalert TH-5, USA) at 5 min before LPS or saline injection and 6 hours after injection."}, "[3]": {"test_system": "formalin-induced paw licking", "assay": "Formalin-induced paw licking test (formalin-induced peripheral neuropathy)", "format": "in vivo", "settings": "mice, pre-treatment 50 mg/kg", "description": "as §1\nFormalin-induced licking paw test was performed as described previously by Zvejniece et al 2006 (Zvejniece L., Muceniece R., Krigere L., Dambrova M., Klusa V. Z. Pharmacol. Biochem. Behav. 2006, 85 (2),287-91). Briefly, mice were gently restrained and 30 μl of formalin solution (1.5% in saline) was injected s.c. into the plantar surface of the right hind paw, using a microsyringe with a 27-gauge needle. Each mouse was then placed in an individual clear Plexiglas observation chamber (30×20×30 cm) and the total licking time of hind paw of each mouse was registered and quantified in subsequent 5-minute intervals for 50 minutes. The recording of licking time started immediately (first phase) and lasted for 5 min. The late phase (second phase) started about 15-20 min after formalin injection and lasted up to 35 min."}, "iNOS gene expression": {"test_system": "iNOS gene expression", "assay": "LPS-induced iNOS gene overexpression in brain tissue, septic shock model (quantitative RT-PCR)", "format": "in vivo", "settings": "mice; 50 mg/kg injected simultaneously with LPS 20 mg/kg i.p.; tissue sampled 6 h after; compared with LPS group", "description": "as §1\nThe iNOS gene expression was stimulated by a single intraperitoneal (i.p.) injection of LPS at a dose of 20 mg/kg 6 h before the tissue sampling. Control animals received i.p. injection of saline (0.9% NaCl). […]\nBrain tissue after sampling were immediately frozen in liquid nitrogen and stored at −80° C. […] Samples were diluted with water at v/v ratio of 1:20 and the quality and quantity of extracted total RNA were examined by measuring the absorbance at 230, 260 and 280 nm with a μQuant™ (BioTek) spectrophotometer. […] Quantitative RT-PCR analysis for iNOS was performed by mixing synthesized cDNA (diluted with water at v/v ratio of 1:10), appropriate primers, and SYBR® Green Master Mix (Applied Biosystems™, USA) and run in the Applied Biosystems Prism 7500 according to the manufacturer's protocol. The transcript levels for the constitutive housekeeping gene product β-actin were quantitatively measured for each sample, and PCR data were reported as the number of transcripts per number of β-actin mRNA molecules."}, "[4]": {"settings": "in vivo; cited from earlier work"}, "NOS": {"test_system": "NOS", "settings": "patients with septic shock, cited from earlier work"}, "[5]": {"settings": "phase II, compared to saline treated group"}},
  "note": "“Also recorded” adds a separate entry of the source. Structures can show the parent of a compound that is named as a salt.",
  "data": [
    {"smiles": "O=[N+]([O-])c1cccc2cn[nH]c12", "note": "[7-nitroindazole]", "values": [
      {"measurement": "nociceptive responses to formalin-produced peripheral neuropathy", "setting": "[1]", "result": "reduces nociceptive responses"}
    ]},
    {"smiles": "NC(=O)CN1C[C@@H](c2ccccc2)CC1=O", "note": "[(4R)-2-(4-phenyl-2-oxopyrrolidin-1-yl)acetamide]", "values": [
      {"measurement": "dose up to which no side effects on the body system are caused", "setting": "[2]", "result": "≤ 250", "unit": "mg/kg"},
      {"measurement": "LPS-induced hypothermia (rectal temperature)", "setting": "LPS-induced hypothermia", "result": "significantly inhibited"},
      {"measurement": "reduction of the paw licking behavior in phase II", "setting": "[3]; phase II", "result": 46, "unit": "%"},
      {"measurement": "paw licking response time in II phase", "setting": "[3]; [5]", "result": "significant inhibition"},
      {"measurement": "LPS-induced iNOS gene expression in brain tissue", "setting": "iNOS gene expression", "result": "highly effective; also recorded: significantly reduced"},
      {"measurement": "excretion from body", "setting": "[4]", "result": "totally excreted from body in unmetabolized form"}
    ]},
    {"smiles": "NC(=O)CN1CC(c2ccccc2)CC1=O", "note": "[(4R,S)-2-(4-phenyl-2-oxopyrrolidin-1-yl)acetamide]", "values": [
      {"measurement": "paw-licking time in I phase", "setting": "[3]; phase I, compared to saline treated group", "result": "did not reduce; also recorded: almost no effect"},
      {"measurement": "paw licking response time in II phase", "setting": "[3]; [5]", "result": "did not reduce; also recorded: almost no effect"},
      {"measurement": "LPS-induced iNOS gene expression in brain tissue", "setting": "iNOS gene expression", "result": "tendency to reduce LPS action; also recorded: did not reduce"}
    ]},
    {"smiles": "NC(=O)CN1C[C@H](c2ccccc2)CC1=O", "note": "[(4S)-2-(4-phenyl-2-oxopyrrolidin-1-yl)acetamide]", "values": [
      {"measurement": "LPS-induced iNOS gene expression in brain tissue", "setting": "iNOS gene expression", "result": "absolutely inactive; also recorded: did not reduce"}
    ]},
    {"smiles": "N#Cc1ccc(C(=O)N2CCC3(CC2)N=C(N)c2c(F)ccc(F)c2N3)cn1", "note": "[AR-C102222]", "values": [
      {"measurement": "peripheral nociception in formalin-induced paw licking test II phase", "setting": "[1]", "result": "reduce peripheral nociception"}
    ]},
    {"smiles": "COC(=O)[C@@H](N)CCCNC(=N)N[N+](=O)[O-]", "note": "[L-NAME, Nω-nitro-L-arginine methyl ester]", "values": [
      {"measurement": "nociceptive responses to formalin-produced peripheral neuropathy", "setting": "[1]", "result": "reduces nociceptive responses"},
      {"measurement": "results of the phase II trial in septic shock", "setting": "NOS; placebo-controlled double-blind study", "result": "promising"},
      {"measurement": "mortality in the treatment group, phase III trial", "setting": "NOS; trial terminated prematurely", "result": "increase in mortality"}
    ]},
    {"smiles": "N=C(N)NN", "note": "[aminoguanidine hydrochloride]", "values": [
      {"measurement": "peripheral nociception in formalin-induced paw licking test II phase", "setting": "[1]", "result": "reduce peripheral nociception"}
    ]},
    {"smiles": "CN(C)CCC=C1c2ccccc2CCc2ccccc21", "note": "[amitriptyline]", "values": [
      {"measurement": "peripheral nociception in formalin-induced paw licking test II phase", "setting": "[1]", "result": "anti-nociceptive activity"}
    ]},
    {"smiles": "NCC1(CC(=O)O)CCCCC1", "note": "[gabapentin]", "values": [
      {"measurement": "peripheral nociception in formalin-induced paw licking test II phase", "setting": "[1]", "result": "anti-nociceptive activity"}
    ]},
    {"smiles": "CC(C)C[C@H](CN)CC(=O)O", "note": "[pregabalin]", "values": [
      {"measurement": "peripheral nociception in formalin-induced paw licking test II phase", "setting": "[1]", "result": "anti-nociceptive activity"}
    ]}
  ]
}
